Experimental data from US20240139214A1, “AGENT FOR SUPPRESSING IL-31 PRODUCTION AND PHARMACEUTICAL COMPOSITION CONTAINING THE SAME” (KYUSHU UNIVERSITY, NATIONAL UNIVERSITY CORPORATION, priority 2021, published 2024).

What was measured:
[1] = system: mouse IL-31 gene; assay: IL-31 production inhibitory action: IL-31 gene expression by real-time PCR in antigen-stimulated CD4+ T cells from Dock8−/− AND Tg mice; type: cell-based; settings: for IL-31 production inhibitory action (in words, discussion of Table 1): relative to compound 1; for activity at 0.312 µM / activity at 0.625 µM / activity at 1.25 µM / activity at 2.5 µM / activity at 0.078 µM / activity at 0.156 µM: Mus musculus, CD4+ T, 24 h, read-out: qPCR results (IL-31 production (%)): based on the case using 0.1% DMSO taken as 100%
[2] = system: CD4+ T cells; assay: T cell proliferation assay (PMA and ionomycin, 3H-thymidine incorporation); type: cell-based, mouse; settings: Mus musculus, CD4+ T, 66 h, read-out: Cell proliferation (%): based on the case using 0.2% DMSO taken as 100%
Description: (§1) A T cell proliferation assay was performed by culturing CD4^+ T cells (5×10^4 cells) with T cell-depleted irradiated spleen cells (1×10^6 cells) in the presence of phorbol 12-myristate 13-acetate (PMA: 100 ng/ml; Sigma-Aldrich) and ionomycin (1 μg/ml; Sigma-Aldrich) for 66 hours. For the last 18 hours of culture, ^3H-thymidine (0.037 MBq) was added, and the incorporated radioactivity was measured with MicroBeta^2 (PerkinElmer, Inc., Waltham, MS).
as §1, with “hours. Test compounds were added at various final concentrations at the start of culture.” for “hours.”, “MS). […]” for “MS).”

| SMILES | IL-31 production inhibitory action (in words, discussion of Table 1) [1] | activity at 5 µM [2] [%] | activity at 10 µM [2] [%] | activity at 20 µM [2] [%] | activity at 40 µM [2] [%] | activity at 0.312 µM [1] [%] | activity at 0.625 µM [1] [%] | activity at 1.25 µM [1] [%] | activity at 2.5 µM [1] [%] | activity at 0.078 µM [1] [%] | activity at 0.156 µM [1] [%] |
| --- | --- | --- | --- | --- | --- | --- | --- | --- | --- | --- | --- |
| CC(C)(C)c1ccc(/C=N/Nc2ccc(C(=O)O)cc2)cc1 [Compound 2, 4-(2-(4-(tert-Butyl)benzylidene)hydrazinyl)benzoic Acid] | maintained |  |  |  |  |  |  |  |  |  |  |
| CN(C)c1ccc(/C=N/Nc2ccc(C(=O)O)cc2)cc1 [Compound 3, 4-(2-(4-(Dimethylamino)benzylidene)hydrazinyl)benzoic Acid] | maintained |  |  |  |  |  |  |  |  |  |  |
| CN(C)c1ccc(-c2cnc(-c3ccc(C(=O)O)cc3)o2)cc1 [Compound 19, 4-(5-(4-(Dimethylamino)phenyl)oxazol-2-yl)benzoic Acid] |  | 86.3 | 79.4 | 66 | 67.4 | 67.6 | 69.9 | 54.5 | 16.9 |  |  |
| O=C(O)c1ccc(-c2cnc(-c3cc(C(F)(F)F)ccc3Cl)o2)cc1 [Compound 20, 4-(2-(2-Chloro-5-(trifluoromethyl)phenyl)oxazol-5-yl)benzoic Acid] |  |  | 91.2 | 87.5 | 86.7 | 23.3 | 24.7 | 22.1 | 32.6 | 16.9 | 17.7 |
| O=C(O)c1ccc(-c2cc(-c3cc(C(F)(F)F)ccc3Cl)no2)cc1 [Compound 21, 4-(3-(2-Chloro-5-(trifluoromethyl)phenyl)isoxazol-5-yl)benzoic Acid] |  |  | 95.5 | 98.2 | 106 | 25.3 | 23 | 38.2 | 13.1 | 23.7 | 29.9 |
| O=C(O)c1ccc(-c2cn(-c3cc(C(F)(F)F)ccc3Cl)nn2)cc1 [Compound 23, 4-(1-(2-Chloro-5-(trifluoromethyl)phenyl)-1H-1,2,3-triazol-4-yl)benzoic Acid] |  | 110 | 92.9 | 88.5 | 68.9 | 46.4 | 31.4 | 22.7 |  |  | 32.5 |
| O=C(O)c1ccc(-c2cn(-c3cc(C(F)(F)F)ccc3F)nn2)cc1 [Compound 24, 4-(1-(2-Fluoro-5-(trifluoromethyl)phenyl)-1H-1,2,3-triazol-4-yl)benzoic Acid] |  | 88.1 | 81.5 | 71.3 | 62.9 | 18.1 | 32 | 31.5 |  |  | 31.2 |
| O=C(O)c1ccc(-c2nc(-c3cc(C(F)(F)F)ccc3Cl)n[nH]2)cc1 [Compound 25, 4-(3-(2-Chloro-5-(trifluoromethyl)phenyl)-1H-1,2,4-triazol-5-yl)benzoic Acid] |  |  | 82.9 | 81.3 | 80.5 | 82.7 | 85.6 | 72.2 | 81.9 |  |  |
| CC(C)c1ccc(-c2cnc(-c3ccc(C(=O)O)cc3)[nH]2)cc1 [Compound 26, 4-(5-(4-Isopropylphenyl)-1H-imidazol-2-yl)benzoic Acid] |  |  | 77.1 | 70.6 | 64.6 |  | 45.1 | 26.2 |  |  |  |
| O=C(O)c1ccc(-c2ncc(-c3cc(C(F)(F)F)ccc3Cl)[nH]2)cc1 [Compound 27, 4-(5-(2-Chloro-5-(trifluoromethyl)phenyl)-1H-imidazol-2-yl)benzoic Acid] |  | 86.2 | 78 | 70 |  | 39.6 | 43.1 | 46.8 |  | 28.6 | 35.1 |
| CC(C)c1ccc(-c2cc(-c3ccc(C(=O)O)cc3)n[nH]2)cc1 [Compound 28, 4-(5-(4-Isopropylphenyl)-1H-pyrazol-3-yl)benzoic Acid] |  |  | 99.9 | 89.5 | 69.1 | 70.6 | 42.6 | 28 |  |  | 73.2 |
| O=C(O)c1ccc(-c2cc(-c3cc(C(F)(F)F)ccc3Cl)[nH]n2)cc1 [Compound 29, 4-(5-(2-Chloro-5-(trifluoromethyl)phenyl)-1H-pyrazol-3-yl)benzoic Acid] |  |  | 88.6 | 77.7 | 86 | 52.3 | 61.9 | 40.7 | 63.6 |  | 59.1 |
| O=C(O)c1ccc(-n2ccc(-c3cc(C(F)(F)F)ccc3Cl)n2)cc1 [Compound 30, 4-(3-(2-Chloro-5-(trifluoromethyl)phenyl)-1H-pyrazol-1-yl)benzoic Acid] |  |  | 98.3 | 90.3 | 76.4 | 29.4 | 23.4 | 26.1 | 30.9 | 41.5 | 39.9 |
| CC(C)c1ccc(-c2nnc(-c3ccc(C(=O)O)cc3)o2)cc1 [Compound 31, 4-(5-(4-Isopropylphenyl)-1,3,4-oxadiazol-2-yl)benzoic Acid] |  |  | 97.5 | 79.3 | 65.6 |  | 53.6 | 24 |  |  |  |
| CN(C)c1ccc(/C=N/Nc2ccc(C(=O)O)cc2)c(O)c1 [Negative control compound 2, 4-(2-(4-(Dimethylamino)-2-hydroxybenzylidene)hydrazineyl)benzoic Acid, reference compound] | tended to notably decrease |  |  |  |  |  |  |  |  |  |  |
| CN(CC(O)CO)c1ccc(/C=N/Nc2ccc(C(=O)O)cc2)cc1 (stereo not drawn) [Negative control compound 3, 4-(2-(4-((2,3-Dihydroxypropyl)(methyl)amino)benzylidene)hydrazineyl)benzoic Acid, reference compound] | tended to notably decrease |  |  |  |  |  |  |  |  |  |  |
| CC(C)c1ccc(/C=N/Nc2cccc(C(=O)O)c2)cc1 [Negative control compound 4, 3-(2-(4-Isopropylbenzylidene)hydrazineyl)benzoic Acid, reference compound] | completely lost |  |  |  |  |  |  |  |  |  |  |
| CC(C)c1ccc(/C=N/Nc2ccccc2C(=O)O)cc1 [Negative control compound 5, 2-(2-(4-Isopropylbenzylidene)hydrazineyl)benzoic Acid, reference compound] | completely lost |  |  |  |  |  |  |  |  |  |  |
| CC(C)c1ccc(/C=N/Nc2ccccc2)cc1 [Negative control compound 6, 1-(4-Isopropylbenzylidene)-2-phenylhydrazine, reference compound] | completely lost |  |  |  |  |  |  |  |  |  |  |
| O=C(O)c1ccc(N/N=C/C2CCCCC2)cc1 [Negative control compound 7, 4-(2-(Cyclohexylmethylene)hydrazinyl)benzoic Acid, reference compound] | completely lost |  |  |  |  |  |  |  |  |  |  |
